{
  "source": "patent US7718715B2",
  "about": "“pH-modified latex comprising a synergistic combination of biocides” (S.C. Johnson & Son, Inc., priority 2004, dated 2010)",
  "key": {"[1]": {"tested_on": "Aspergillus niger #6275", "assay": "Challenge Test (Antimicrobial Effectiveness Test), mold inoculum", "assay_type": "cell-based", "parameters": "key to Challenge Test result: Mold A. niger: Fail: Recovery of surviving organisms at 14 days was a failing result for the challenge test", "conditions": "for Challenge Test result: Mold A. niger: stabilized acrylic latex A, DN 22%", "procedure": "The following cultures were obtained from American Type Culture Collection (ATCC) at 10801 University Boulevard, Manassas, Va. 20110-2209: Escherichia coli #11229, Pseudomonas aeruginosa #15442, Candida albicans #10231, Aspergillus niger #6275. The mold inoculum was 0.10 ml of A. niger culture specimen in 25 grams of sample to give approximately 2×10^5 CFU/g. The culture specimen was obtained from 7-day-old A. niger culture grown on Sabouraud Dextrose Agar (Difco Laboratories, Detroit, Mich.) with 0.2% Triton X-100 in 0.85% saline. Each of the 25-g samples were inoculated or challenged with 0.10 ml of the bacterial inoculum, the yeast inoculum, and the mold inoculum respectively on day-0 and day-14. All samples were stored at ambient temperature. Each sample (10 microliter) was streaked on appropriate agar plates (bacteria on Tryptic Soy Agar (Difco Laboratories, Detroit, Mich.) plates with neutralizer and yeast/mold on Potato Dextrose Agar (Difco Laboratories, Detroit, Mich.) plates with neutralizer) on day-1, day-2, day-3, day-7, day-14, day-15, day-16, day-17, day-21, and day-28 to test for survivors. Streaked plates were incubated at appropriate temperature and time (48-hr at 35±2° C. for bacteria and 72-hr at 28±2° C. for yeast/mold). On day-14, each sample was re-inoculated with appropriate inoculum after streaking on agar plates. Plates were read after incubation time. Recovery of surviving organisms at 14 days was a failing result for the challenge test. Biocides were always added after the reaction has been completed and after the batch has been cooled to <50° C. The desired temperature was dependent on the specific biocide. Many biocides become deactivated if exposed to high temperatures for an extended time. Each biocide was diluted with about 5× its weight with DI water and slowly added to the batch with good agitation. The dilution is to prevent the biocide from shocking the latex. The batch was mixed for a minimum of 20 minutes after the biocide was added to ensure good incorporation. If any temporary destabilization to the latex had occurred, it had time to recover prior to filtration. The Challenge Test is a qualitative laboratory procedure used to differentiate poorly and marginally preserved products from well-preserved products. Products are intentionally inoculated with test organisms and then evaluated by use of streak plating technique to determine if microbial reduction has been attained."}, "[2]": {"tested_on": "Escherichia coli #11229, Pseudomonas aeruginosa #15442", "assay": "Challenge Test (Antimicrobial Effectiveness Test), bacterial inoculum (1:1 mixture)", "assay_type": "cell-based, E. coli & P. aeruginosa", "conditions": "stabilized acrylic latex A, DN 22%", "procedure": "The following cultures were obtained from American Type Culture Collection (ATCC) at 10801 University Boulevard, Manassas, Va. 20110-2209: Escherichia coli #11229, Pseudomonas aeruginosa #15442, Candida albicans #10231, Aspergillus niger #6275. The bacterial inoculum was 0.10 ml of a 1:1 mixture of the 24-hr±4 hr culture of E. coli and P. aeruginosa in 25 grams of sample to give approximately 4×10^6 CFU/g. Both E. coli culture and the P. aeruginosa culture were grown in Nutrient Broth (Difco Laboratories, Detroit, Mich.) at 35° C. Each of the 25-g samples were inoculated or challenged with 0.10 ml of the bacterial inoculum, the yeast inoculum, and the mold inoculum respectively on day-0 and day-14. All samples were stored at ambient temperature. Each sample (10 microliter) was streaked on appropriate agar plates (bacteria on Tryptic Soy Agar (Difco Laboratories, Detroit, Mich.) plates with neutralizer and yeast/mold on Potato Dextrose Agar (Difco Laboratories, Detroit, Mich.) plates with neutralizer) on day-1, day-2, day-3, day-7, day-14, day-15, day-16, day-17, day-21, and day-28 to test for survivors. Streaked plates were incubated at appropriate temperature and time (48-hr at 35±2° C. for bacteria and 72-hr at 28±2° C. for yeast/mold). On day-14, each sample was re-inoculated with appropriate inoculum after streaking on agar plates. Plates were read after incubation time. Recovery of surviving organisms at 14 days was a failing result for the challenge test. Biocides were always added after the reaction has been completed and after the batch has been cooled to <50° C. The desired temperature was dependent on the specific biocide. Many biocides become deactivated if exposed to high temperatures for an extended time. Each biocide was diluted with about 5× its weight with DI water and slowly added to the batch with good agitation. The dilution is to prevent the biocide from shocking the latex. The batch was mixed for a minimum of 20 minutes after the biocide was added to ensure good incorporation. If any temporary destabilization to the latex had occurred, it had time to recover prior to filtration. The Challenge Test is a qualitative laboratory procedure used to differentiate poorly and marginally preserved products from well-preserved products. Products are intentionally inoculated with test organisms and then evaluated by use of streak plating technique to determine if microbial reduction has been attained."}, "[3]": {"conditions": "0.10% Bioban CS-1135, 0.00% Bronopol, pH 6.68"}, "[4]": {"conditions": "0.20% Bioban CS-1135, 0.00% Bronopol, pH 6.69"}, "[5]": {"conditions": "0.80% Bioban CS-1135, 0.00% Bronopol, pH 6.62"}, "[6]": {"conditions": "1.20% Bioban CS-1135, 0.00% Bronopol, pH 6.64"}, "[7]": {"conditions": "2.00% Bioban CS-1135, 0.00% Bronopol, pH 6.82"}, "[8]": {"conditions": "0.10% Bronopol (30% active), 0.00% Bioban CS-1135, pH 6.64, Table 1"}, "[9]": {"conditions": "0.10% Bronopol (30% active), 0.00% Dowicil 75, pH 6.64, Table 3"}, "[10]": {"conditions": "0.20% Bronopol (30% active), 0.00% Bioban CS-1135, pH 6.65, Table 1"}, "[11]": {"conditions": "0.20% Bronopol (30% active), 0.00% Dowicil 75, pH 6.65, Table 3"}, "[12]": {"conditions": "0.50% Bronopol (30% active), 0.00% Bioban CS-1135, pH 6.58, Table 1"}, "[13]": {"conditions": "0.50% Bronopol (30% active), 0.00% Dowicil 75, pH 6.58, Table 3"}, "[14]": {"conditions": "0.80% Bronopol (30% active), 0.00% Bioban CS-1135, pH 6.57, Table 1"}, "[15]": {"conditions": "0.80% Bronopol (30% active), 0.00% Dowicil 75, pH 6.57, Table 3"}, "[16]": {"conditions": "1.20% Bronopol (30% active), 0.00% Bioban CS-1135, pH 6.57, Table 1"}, "[17]": {"conditions": "1.20% Bronopol (30% active), 0.00% Dowicil 75, pH 6.57, Table 3"}},
  "data": [
    {"smiles": "CC1(C)COCN1", "note": "[Bioban CS-1135, 4,4-dimethyl-oxazolidine]", "values": [
      {"measurement": "Challenge Test result: Mold A. niger", "setting": "[1]; [3]", "value": "Fail"},
      {"measurement": "Challenge Test result: Mold A. niger", "setting": "[1]; [4]", "value": "Pass"},
      {"measurement": "Challenge Test result: Mold A. niger", "setting": "[1]; [5]", "value": "Pass"},
      {"measurement": "Challenge Test result: Mold A. niger", "setting": "[1]; [6]", "value": "Pass"},
      {"measurement": "Challenge Test result: Mold A. niger", "setting": "[1]; [7]", "value": "Pass"},
      {"measurement": "Challenge Test result: Bacteria E. coli & P. aeruginosa", "setting": "[2]; [3]", "value": "Pass"},
      {"measurement": "Challenge Test result: Bacteria E. coli & P. aeruginosa", "setting": "[2]; [4]", "value": "Pass"},
      {"measurement": "Challenge Test result: Bacteria E. coli & P. aeruginosa", "setting": "[2]; [5]", "value": "Pass"},
      {"measurement": "Challenge Test result: Bacteria E. coli & P. aeruginosa", "setting": "[2]; [6]", "value": "Pass"},
      {"measurement": "Challenge Test result: Bacteria E. coli & P. aeruginosa", "setting": "[2]; [7]", "value": "Pass"}
    ]},
    {"smiles": "O=[N+]([O-])C(Br)(CO)CO", "note": "[Bronopol, 2-bromo-2-nitro-1,3-propanediol]", "values": [
      {"measurement": "Challenge Test result: Mold A. niger", "setting": "[1]; [8]", "value": "Fail"},
      {"measurement": "Challenge Test result: Mold A. niger", "setting": "[1]; [9]", "value": "Fail"},
      {"measurement": "killing of the mold (A. niger)", "setting": "[1]; 0.2% BRONOPOL, acrylic latex A", "value": "failed to kill"},
      {"measurement": "Challenge Test result: Mold A. niger", "setting": "[1]; [10]", "value": "Fail"},
      {"measurement": "Challenge Test result: Mold A. niger", "setting": "[1]; [11]", "value": "Fail"},
      {"measurement": "Challenge Test result: Mold A. niger", "setting": "[1]; [12]", "value": "Pass"},
      {"measurement": "Challenge Test result: Mold A. niger", "setting": "[1]; [13]", "value": "Pass"},
      {"measurement": "Challenge Test result: Mold A. niger", "setting": "[1]; [14]", "value": "Pass"},
      {"measurement": "Challenge Test result: Mold A. niger", "setting": "[1]; [15]", "value": "Pass"},
      {"measurement": "Challenge Test result: Mold A. niger", "setting": "[1]; [16]", "value": "Pass"},
      {"measurement": "Challenge Test result: Mold A. niger", "setting": "[1]; [17]", "value": "Pass"},
      {"measurement": "control of the growth of Aspergillus niger", "setting": "[1]; maximum allowable level, test stabilized acrylic latex", "value": "failed to control"},
      {"measurement": "Challenge Test result: Bacteria E. coli & P. aeruginosa", "setting": "[2]; [8]", "value": "Pass"},
      {"measurement": "Challenge Test result: Bacteria E. coli & P. aeruginosa", "setting": "[2]; [9]", "value": "Pass"},
      {"measurement": "Challenge Test result: Bacteria E. coli & P. aeruginosa", "setting": "[2]; [10]", "value": "Pass"},
      {"measurement": "Challenge Test result: Bacteria E. coli & P. aeruginosa", "setting": "[2]; [11]", "value": "Pass"},
      {"measurement": "Challenge Test result: Bacteria E. coli & P. aeruginosa", "setting": "[2]; [12]", "value": "Pass"},
      {"measurement": "Challenge Test result: Bacteria E. coli & P. aeruginosa", "setting": "[2]; [13]", "value": "Pass"},
      {"measurement": "Challenge Test result: Bacteria E. coli & P. aeruginosa", "setting": "[2]; [14]", "value": "Pass"},
      {"measurement": "Challenge Test result: Bacteria E. coli & P. aeruginosa", "setting": "[2]; [15]", "value": "Pass"},
      {"measurement": "Challenge Test result: Bacteria E. coli & P. aeruginosa", "setting": "[2]; [16]", "value": "Pass"},
      {"measurement": "Challenge Test result: Bacteria E. coli & P. aeruginosa", "setting": "[2]; [17]", "value": "Pass"}
    ]}
  ]
}
